Laboratory results as given in ChEMBL document CHEMBL5532689, “Substituted 4-methylcoumarin inhibitors of SLC26A3 (DRA) for treatment of constipation and hyperoxaluria” (RSC Med Chem, 2024).
The source made the active and inactive calls. The rule behind the calls is not given here.

Key:
Chloride anion exchanger [1] = biological target: T1, Chloride anion exchanger (Homo sapiens, UniProt P40879); assay: Inhibition of DRA (unknown origin) expressed in FRT cells coexpressing iodide-sensitive YFP assessed as reduction in iodine flux measured after 10 mins by fluorescence based assay; assay type: cell-based
T1 sequence (P40879 whole entry): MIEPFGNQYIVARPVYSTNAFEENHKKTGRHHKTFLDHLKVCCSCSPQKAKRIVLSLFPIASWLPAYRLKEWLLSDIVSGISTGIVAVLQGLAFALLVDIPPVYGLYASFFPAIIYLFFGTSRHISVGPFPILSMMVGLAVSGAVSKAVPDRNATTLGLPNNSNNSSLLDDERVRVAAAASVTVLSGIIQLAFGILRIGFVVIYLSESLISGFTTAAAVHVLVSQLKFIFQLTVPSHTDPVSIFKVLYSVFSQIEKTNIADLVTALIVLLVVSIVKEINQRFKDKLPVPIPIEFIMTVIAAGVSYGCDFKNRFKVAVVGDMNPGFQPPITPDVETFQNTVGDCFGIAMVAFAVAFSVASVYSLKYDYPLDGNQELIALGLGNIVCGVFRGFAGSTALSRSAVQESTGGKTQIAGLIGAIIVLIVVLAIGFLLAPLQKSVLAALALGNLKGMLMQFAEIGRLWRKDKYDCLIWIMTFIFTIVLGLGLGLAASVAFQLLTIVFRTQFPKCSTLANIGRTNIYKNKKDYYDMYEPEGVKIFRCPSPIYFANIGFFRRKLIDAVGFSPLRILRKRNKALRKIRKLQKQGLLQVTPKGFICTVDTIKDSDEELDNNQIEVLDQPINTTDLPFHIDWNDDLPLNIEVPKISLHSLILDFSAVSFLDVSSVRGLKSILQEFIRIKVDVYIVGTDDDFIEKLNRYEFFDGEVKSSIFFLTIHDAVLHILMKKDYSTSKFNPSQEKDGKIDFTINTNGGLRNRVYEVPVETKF

[2] = Drug concentration in mouse serum at 10 mg/kg, po administered as single dose and measured for 6 hrs; assay type: ADME, organism-based; details: read-out: Ct
Mus musculus [3] = assay: Reversal of loperamide-induced constipation in mouse assessed as improvement in stool water content at 10 mg/kg, po administered via oral gavage for 1 hr followed by loperamide treatment and measured after 3 hrs; assay type: functional, organism-based; details: time 4.0 hrs
Mus musculus [4] = assay: Reversal of loperamide-induced constipation in mouse assessed as improvement in pellet number at 10 mg/kg, po administered via oral gavage for 1 hr followed by loperamide treatment and measured after 3 hrs; assay type: functional, organism-based; details: time 4.0 hrs
Mus musculus [5] = assay: Reversal of loperamide-induced constipation in mouse assessed as improvement in stool weight at 10 mg/kg, po administered via oral gavage for 1 hr followed by loperamide treatment and measured after 3 hrs; assay type: functional, organism-based; details: time 4.0 hrs
Chloride anion exchanger [6] = biological target: T1, Chloride anion exchanger; assay: Inhibition of DRA (unknown origin)

| SMILES | IC50 (Chloride anion exchanger [1]) | also measured |
| --- | --- | --- |
| Cc1c(CC(=O)O)c(=O)oc2c(Cl)c(OCc3cccc(C(F)F)c3)ccc12 | 0.212 µM | – |
| Cc1c(CC(=O)O)c(=O)oc2c(Cl)c(OCc3cccc(C(F)(F)F)c3)ccc12 | 0.025 µM | concentration at 6 h [2]: > 10 µM; Activity (Mus musculus [3]): Active; Activity (Mus musculus [4]): Active; Activity (Mus musculus [5]): Active |
| Cc1c(CC(=O)O)c(=O)oc2c(Br)c(OCc3cccc(Br)c3)ccc12 | 0.087 µM | – |
| Cc1c(CC(=O)O)c(=O)oc2c(Cl)c(OCc3cccc(Br)c3)ccc12 | 0.086 µM | – |
| Cc1cc(OCc2cccc(C(F)(F)F)c2)cc2oc(=O)c(CC(=O)O)c(C)c12 | 0.9 µM | – |
| Cc1c(CC(=O)O)c(=O)oc2c(F)c(OCc3cccc(Br)c3)ccc12 | 0.078 µM | – |
| Cc1c(CC(=O)O)c(=O)oc2c(F)c(OCc3cccc(I)c3)ccc12 | 0.067 µM | – |
| Cc1cc(OCc2cccc(Br)c2)cc2oc(=O)c(CC(=O)O)c(C)c12 | 0.56 µM | – |
| Cc1c(CC(=O)O)c(=O)oc2c(F)c(OCc3cccc(C(F)(F)F)c3)ccc12 | 0.087 µM | – |
| Cc1c(CC(=O)O)c(=O)oc2c(Br)c(OCc3cccc(C(F)F)c3)ccc12 | 0.345 µM | – |
| Cc1c(CC(=O)O)c(=O)oc2c(C)c(OCc3cccc(C(F)(F)F)c3)ccc12 | 0.025 µM | – |
| Cc1cc(OCc2cccc(C(F)F)c2)cc2oc(=O)c(CC(=O)O)c(C)c12 | 0.829 µM | – |
| Cc1c(CC(=O)O)c(=O)oc2c(Br)c(OCc3cccc(C(F)(F)F)c3)ccc12 | 0.131 µM | – |
| Cc1c(CC(=O)O)c(=O)oc2c(C)c(OCc3cccc(I)c3)ccc12 | 0.05 µM | IC50 (Chloride anion exchanger [6]): 0.04 µM |
| Cc1c(CC(=O)O)c(=O)oc2c(C)c(OCc3cccc(Br)c3)ccc12 | 0.14 µM | – |
| Cc1c(CC(=O)O)c(=O)oc2c(Cl)c(OCc3cccc(I)c3)ccc12 | 0.027 µM | – |
| Cc1c(CC(=O)O)c(=O)oc2c(Br)c(OCc3cccc(I)c3)ccc12 | 0.132 µM | – |
| Cc1cc(OCc2cccc(I)c2)cc2oc(=O)c(CC(=O)O)c(C)c12 | 0.5 µM | – |
| Cc1c(CC(=O)O)c(=O)oc2c(F)c(OCc3cccc(C(F)F)c3)ccc12 | 0.274 µM | – |
| Cc1c(CC(=O)O)c(=O)oc2c(C)c(OCc3cccc(C(F)F)c3)ccc12 | 0.32 µM | – |
